Test system: IGF-IRβ, pS6 in wild-type cortical neurons
Test: Proteasomal inhibition experiment, Western blot in wild-type cortical neurons
Type: cell-based, rat
Details: 100 nM bortezomib with 4 μM 17-AGG
Experimental: Hippocampi and cortexes from 18-day-old rat embryos (Charles River CD1) were isolated under the microscope and collected in Hank's Balanced Salt Solution containing 10 mM MgCl2, 1 mM kynurenic acid, 10 mM HEPES and penicillin/streptomycin. After 5 min dissociation at 37° C. in 30 U/ml of papain, neurons were mechanically triturated and plated in Neurobasal (NB) medium containing B27 supplement, 2 mM L-glutamine, penicillin/streptomycin and primocin (NB/B27). Biochemical analysis was performed on cortical cultures plated at 1×10^6 cells/well onto six-well plates. Immunofluorescent analysis was performed on hippocampal cultures plated at 20×10^3 cells/well onto 96-well plates. All plates were coated with 20 μg/ml poly-D-lysine (PDL).
Stocks of drugs were freshly diluted in NB media before performing each experiment. The same amount of vehicle was used as vehicle-only control. For dose response curves serial dilutions were freshly made in NB media by a manual multichannel pipette using compound dilution plates.
Protein extracts were lysed in 1×SDS (22 mM Tris-HCl pH 6.8, 4% Glycerol, 0.8% SDS, 1.6% β-mercaptoethanol, bromphenol blue) sample buffer, heated to 95° C. for 5 min and stored frozen. Before being subjected to discontinuous gel electrophoresis, equal amounts of all protein lysates were verified by Coomassie gel staining. For immunoblotting, equal amounts of protein lysates were subjected to SDS-PAGE, transferred to Immobilon-P Millipore and incubated in LI-COR blocking solution at RT for 2 hrs. Primary and secondary antibodies were diluted in LI-COR blocking solution to the appropriate concentrations. LI-COR IRDye secondary antibodies were used. All images were acquired using the LI-COR Odyssey Classic imager and associated Image Studio Lite analysis software (version 5.2.5). Quantification of protein expression was performed by densitometry scans of immunoblots using LI-COR Odyssey imaging system.

SMILES: CC(C)C[C@H](NC(=O)[C@H](Cc1ccccc1)NC(=O)c1cnccn1)B(O)O [BTZ, bortezomib]
- reduction in S6 phosphorylation caused by 17-AGG: prevented
- reduction of IGF-IRβ levels caused by 17-AGG: prevented

Reference: US20230218577A1, “USE OF HEAT SHOCK PROTEIN INHIBITORS FOR THE TREATMENT OF NEURODEVELOPMENTAL DISORDERS” (The Children's Medical Center Corporation, priority 2020, published 2023)
